Results: patent publication US20030118627A1 (DABUR RESEARCH FOUNDATION, priority 2001, published 2003)

Experiments:
Hep2 = assay: MTT cytotoxicity assay, Hep2 larynx; format: cell-based; conditions: Homo sapiens, HEp-2, 24 h, read-out: ED50 values of cytotoxicity
Protocol: (§1) Briefly, a […] MTT cytotoxicity assay was performed, which is based on the principle of uptake of MTT (3-(4,5-dimethylthiazol-2-yl)-2,5-diphenyl tetrazolium bromide), a tetrazolium salt, by the metabolically active cells where it is metabolized by active mitochondria into a blue colored formazan product that is read spectrophoto-metrically. MTT was dissolved in phosphate buffered saline with a pH of 7.4 to obtain an MTT concentration of 5 mg/ml; the resulting mixture was filtered through a 0.22 micron filter to sterilize and remove a small amount of insoluble residue. For each type of tumor cell, 20,000 to 50,000 cells were seeded in a 96-well culture plate and incubated with the combination in a CO2 incubator for 24 hours. […] The assay was terminated after 24 hours by adding 100 ug (20 ul) of MTT to each well, then incubating for additional one hour, and finally adding 50 ul of 10% SDS-0.01N HCl to each well to lyse the cells and dissolve formazan. After incubating for one hour, the plate was read spectrophotometrically at 540 nm and the percentage cytotoxicity calculated.

MCF7 = assay: MTT cytotoxicity assay, MCF7 breast; format: cell-based; conditions: Homo sapiens; for cytotoxicity at 1000 µM / cytotoxicity at 2500 µM / cytotoxicity at 4000 µM / cytotoxicity at 5000 µM / cytotoxicity at 10000 µM: MCF7 breast, read-out: Percent cytotoxicity; for cytotoxicity at 1000 µM: 1.0 mM; for cytotoxicity at 2500 µM: 2.5 mM; for cytotoxicity at 4000 µM: 4 mM; for cytotoxicity at 5000 µM: 5 mM; for cytotoxicity at 10000 µM: 10 mM
Protocol: as §1

KB = assay: MTT cytotoxicity assay, KB oral; format: cell-based; conditions: Homo sapiens, 24 h, read-out: ED50 values of cytotoxicity
Protocol: as §1

PTC = assay: MTT cytotoxicity assay, PTC colon; format: cell-based; conditions: Homo sapiens; for cytotoxicity at 1000 µM: 1.0 mM; for cytotoxicity at 1000 µM / cytotoxicity at 2500 µM / cytotoxicity at 4000 µM / cytotoxicity at 5000 µM / cytotoxicity at 10000 µM: read-out: Percent cytotoxicity; for cytotoxicity at 2500 µM: 2.5 mM; for cytotoxicity at 4000 µM: 4 mM; for cytotoxicity at 5000 µM: 5 mM; for cytotoxicity at 10000 µM: 10 mM
Protocol: as §1

PA 1 = assay: MTT cytotoxicity assay, PA 1 ovary; format: cell-based; conditions: Homo sapiens; for IC50: 24 h, PA 1 Ovarian, read-out: ED50 values of cytotoxicity; for cytotoxicity at 1000 µM / cytotoxicity at 2500 µM / cytotoxicity at 4000 µM / cytotoxicity at 5000 µM / cytotoxicity at 10000 µM: PA 1 Ovary, read-out: Percent cytotoxicity; for cytotoxicity at 1000 µM: 1.0 mM; for cytotoxicity at 2500 µM: 2.5 mM; for cytotoxicity at 4000 µM: 4 mM; for cytotoxicity at 5000 µM: 5 mM; for cytotoxicity at 10000 µM: 10 mM
Protocol: as §1

Miapaca2 = assay: MTT cytotoxicity assay, Miapaca2 pancreas; format: cell-based; conditions: Homo sapiens; for cytotoxicity at 1000 µM: MIA PaCa-2, 1.0 mM; for cytotoxicity at 1000 µM / cytotoxicity at 2500 µM / cytotoxicity at 4000 µM / cytotoxicity at 5000 µM / cytotoxicity at 10000 µM: read-out: Percent cytotoxicity; for cytotoxicity at 2500 µM: MIA PaCa-2, 2.5 mM; for cytotoxicity at 4000 µM: MIA PaCa-2, 4 mM; for cytotoxicity at 5000 µM: MIA PaCa-2, 5 mM; for cytotoxicity at 10000 µM: MIA PaCa-2, 10 mM
Protocol: as §1

U87MG = assay: MTT cytotoxicity assay, U87MG glioblastoma; format: cell-based; conditions: Homo sapiens, U-87 MG, 24 h, read-out: ED50 values of cytotoxicity
Protocol: as §1

L132 = assay: MTT cytotoxicity assay, L132 lung; format: cell-based; conditions: Homo sapiens; for cytotoxicity at 1000 µM: 1.0 mM; for cytotoxicity at 1000 µM / cytotoxicity at 2500 µM / cytotoxicity at 4000 µM / cytotoxicity at 5000 µM / cytotoxicity at 10000 µM: read-out: Percent cytotoxicity; for cytotoxicity at 2500 µM: 2.5 mM; for cytotoxicity at 4000 µM: 4 mM; for cytotoxicity at 5000 µM: 5 mM; for cytotoxicity at 10000 µM: 10 mM
Protocol: as §1

INT 407 = assay: MTT cytotoxicity assay, INT 407 intestine; format: cell-based; conditions: Homo sapiens, 24 h, read-out: ED50 values of cytotoxicity
Protocol: as §1

MOLT 4 = assay: MTT cytotoxicity assay, MOLT 4 leukemia; format: cell-based; conditions: Homo sapiens; for cytotoxicity at 1000 µM / cytotoxicity at 2500 µM / cytotoxicity at 4000 µM / cytotoxicity at 5000 µM / cytotoxicity at 10000 µM: MOLT 4 Leukemia, read-out: Percent cytotoxicity; for cytotoxicity at 1000 µM: 1.0 mM; for cytotoxicity at 2500 µM: 2.5 mM; for cytotoxicity at 4000 µM: 4 mM; for cytotoxicity at 5000 µM: 5 mM; for cytotoxicity at 10000 µM: 10 mM
Protocol: as §1

DU145 = assay: MTT cytotoxicity assay, DU145 prostate; format: cell-based; conditions: Homo sapiens; for cytotoxicity at 1000 µM: DU-145, 1.0 mM; for cytotoxicity at 1000 µM / cytotoxicity at 2500 µM / cytotoxicity at 4000 µM / cytotoxicity at 5000 µM / cytotoxicity at 10000 µM: read-out: Percent cytotoxicity; for cytotoxicity at 2500 µM: DU-145, 2.5 mM; for cytotoxicity at 4000 µM: DU-145, 4 mM; for cytotoxicity at 5000 µM: DU-145, 5 mM; for cytotoxicity at 10000 µM: DU-145, 10 mM
Protocol: as §1

293 = assay: MTT cytotoxicity assay, 293 kidney; format: cell-based; conditions: Homo sapiens, HEK293, 24 h, read-out: ED50 values of cytotoxicity
Protocol: as §1

Swiss albino mice = conditions: both, mouse, in vivo, po, 15 days
Protocol: Acute toxicity studies were performed using the oral route of administration.
A batch of 5 female and 5 male mice each was administered the test substance by oral route. […] Another batch of 5 female and 5 male served as control.
Observations were made three times on the day of dosing and twice daily thereafter for the remainder of 14 days or until reversible toxic signs or symptoms subsided. All gross visible toxic signs and symptoms were recorded. Body weights were recorded prior to dosing and weekly thereafter.

[1] = 24 h, read-out: ED50 values of cytotoxicity

## CC(=O)C(O)N1C(=O)CCC1C(=O)OCc1ccccc1 (stereo not shown) [MGC-3, N-(1-hydroxy-2-ketopropyl)-benzylpyroglutamate]
Hep2
  IC50: 2.6 mM
MCF7; MCF7, 24 h, MCF 7 Breast, read-out: ED50 values of cytotoxicity
  IC50: > 5 mM
MCF7
  cytotoxicity at 1000 µM: 0%
  cytotoxicity at 2500 µM: 0%
  cytotoxicity at 4000 µM: 0%
  cytotoxicity at 5000 µM: 2.7 ± 0.1%
  cytotoxicity at 10000 µM: 12.4 ± 1%
KB
  IC50: 2.55 ± 0.4 mM
PTC
  cytotoxicity at 1000 µM: 0%
  cytotoxicity at 2500 µM: 32.9 ± 3.8%
  cytotoxicity at 4000 µM: 54.9 ± 3.8%
  cytotoxicity at 5000 µM: 56.8 ± 5.7%
  cytotoxicity at 10000 µM: 86.9 ± 7.6%
PTC; [1]
  IC50: 3.8 ± 0.7 mM
PA 1
  IC50: 1.8 ± 0.6 mM
  cytotoxicity at 1000 µM: 42.8 ± 4.9%
  cytotoxicity at 2500 µM: 64.8 ± 5.9%
  cytotoxicity at 4000 µM: 66.9 ± 5.9%
  cytotoxicity at 5000 µM: 78.9 ± 7.4%
  cytotoxicity at 10000 µM: 88.5 ± 8.4%
Miapaca2
  cytotoxicity at 1000 µM: 0%
  cytotoxicity at 2500 µM: 0%
  cytotoxicity at 4000 µM: 0%
  cytotoxicity at 5000 µM: 12.9 ± 1%
  cytotoxicity at 10000 µM: 14.1 ± 1.9%
Miapaca2; MIA PaCa-2, 24 h, read-out: ED50 values of cytotoxicity
  IC50: > 5 mM
U87MG
  IC50: > 5 mM
L132
  cytotoxicity at 1000 µM: 0%
  cytotoxicity at 2500 µM: 30 ± 2.9%
  cytotoxicity at 4000 µM: 45.8 ± 4.5%
  cytotoxicity at 5000 µM: 52.9 ± 5.2%
  cytotoxicity at 10000 µM: 79.4 ± 5.9%
L132; [1]
  IC50: 4.6 ± 1.6 mM
INT 407
  IC50: 2.85 ± 0.7 mM
MOLT 4; 24 h, Molt 4 Leukemia, read-out: ED50 values of cytotoxicity
  IC50: 1.65 ± 0.5 mM
MOLT 4
  cytotoxicity at 1000 µM: 42.1 ± 4.3%
  cytotoxicity at 2500 µM: 54.9 ± 4.3%
  cytotoxicity at 4000 µM: 65.9 ± 4.3%
  cytotoxicity at 5000 µM: 87.9 ± 7.3%
  cytotoxicity at 10000 µM: 88.3 ± 7.4%
DU145
  cytotoxicity at 1000 µM: 29.4 ± 4.2%
  cytotoxicity at 2500 µM: 56.9 ± 4.3%
  cytotoxicity at 4000 µM: 64.8 ± 6.3%
  cytotoxicity at 5000 µM: 87.9 ± 8.3%
  cytotoxicity at 10000 µM: 88.4 ± 4%
DU145; DU-145, 24 h, read-out: ED50 values of cytotoxicity
  IC50: 1.8 ± 0.2 mM
293
  IC50: 2 ± 0.3 mM

## CC(=O)OC(C(C)=O)N1C(=O)CCC1C(=O)OCc1ccccc1 (stereo not shown) [MGC-6, N-(1-acetoxy-2-ketopropyl)-benzylpyroglutamate]
Swiss albino mice
  safe dose: 75 mg
MCF7
  cytotoxicity at 1000 µM: 0%
  cytotoxicity at 2500 µM: 0%
  cytotoxicity at 4000 µM: 0%
  cytotoxicity at 5000 µM: 13.9 ± 1.1%
  cytotoxicity at 10000 µM: 23.9 ± 2.9%
PTC
  cytotoxicity at 1000 µM: 38.9 ± 3.9%
  cytotoxicity at 2500 µM: 59.7 ± 5.3%
  cytotoxicity at 4000 µM: 75.9 ± 4%
  cytotoxicity at 5000 µM: 80.6 ± 7.4%
  cytotoxicity at 10000 µM: 86.4 ± 4%
PA 1
  cytotoxicity at 1000 µM: 42.9 ± 4.9%
  cytotoxicity at 2500 µM: 63.9 ± 4.9%
  cytotoxicity at 4000 µM: 86.9 ± 6.9%
  cytotoxicity at 5000 µM: 88.7 ± 5.9%
  cytotoxicity at 10000 µM: 84 ± 7.5%
Miapaca2
  cytotoxicity at 1000 µM: 0%
  cytotoxicity at 2500 µM: 23.7 ± 2%
  cytotoxicity at 4000 µM: 51.9 ± 5.2%
  cytotoxicity at 5000 µM: 58.5 ± 5%
  cytotoxicity at 10000 µM: 67.4 ± 3%
L132
  cytotoxicity at 1000 µM: 2.7 ± 0.2%
  cytotoxicity at 2500 µM: 34.8 ± 5.8%
  cytotoxicity at 4000 µM: 53.9 ± 5%
  cytotoxicity at 5000 µM: 67.9 ± 5%
  cytotoxicity at 10000 µM: 74.7 ± 7.3%
MOLT 4
  cytotoxicity at 1000 µM: 41.9 ± 4.2%
  cytotoxicity at 2500 µM: 61.9 ± 5.3%
  cytotoxicity at 4000 µM: 84.9 ± 7.4%
  cytotoxicity at 5000 µM: 84.8 ± 3.9%
  cytotoxicity at 10000 µM: 87.1 ± 6.8%
DU145
  cytotoxicity at 1000 µM: 37.8 ± 2.6%
  cytotoxicity at 2500 µM: 56.9 ± 4.2%
  cytotoxicity at 4000 µM: 78.9 ± 7.4%
  cytotoxicity at 5000 µM: 81.5 ± 7.3%
  cytotoxicity at 10000 µM: 85.9 ± 6.9%

## CCOC(=O)C1CCC(=O)N1C(OC(C)=O)C(C)=O (stereo not shown) [MGC-8]
Swiss albino mice
  safe dose: 100 mg
MCF7
  cytotoxicity at 1000 µM: 16 ± 4.1%
  cytotoxicity at 2500 µM: 36 ± 3.5%
  cytotoxicity at 4000 µM: 70 ± 4.5%
  cytotoxicity at 5000 µM: 73 ± 6%
  cytotoxicity at 10000 µM: 87 ± 7%
PTC
  cytotoxicity at 1000 µM: 32.2 ± 3.9%
  cytotoxicity at 2500 µM: 48.6 ± 2.9%
  cytotoxicity at 4000 µM: 67.7 ± 4.8%
  cytotoxicity at 5000 µM: 76.3 ± 1%
  cytotoxicity at 10000 µM: 79.6 ± 3%
PA 1
  IC50: 1.8 ± 0.7 mM
  cytotoxicity at 1000 µM: 38 ± 3.7%
  cytotoxicity at 2500 µM: 56 ± 4.8%
  cytotoxicity at 4000 µM: 64.5 ± 5.3%
  cytotoxicity at 5000 µM: 69 ± 2.1%
  cytotoxicity at 10000 µM: 71.7 ± 6.3%
Miapaca2
  cytotoxicity at 1000 µM: 0%
  cytotoxicity at 2500 µM: 61 ± 2.5%
  cytotoxicity at 4000 µM: 89 ± 4.5%
  cytotoxicity at 5000 µM: 88 ± 4.5%
  cytotoxicity at 10000 µM: 86 ± 5%
L132
  cytotoxicity at 1000 µM: 8 ± 1.5%
  cytotoxicity at 2500 µM: 12 ± 3.3%
  cytotoxicity at 4000 µM: 25 ± 3.5%
  cytotoxicity at 5000 µM: 35 ± 4.1%
  cytotoxicity at 10000 µM: 45 ± 5.1%
MOLT 4
  cytotoxicity at 1000 µM: 40.3 ± 2.9%
  cytotoxicity at 2500 µM: 58.3 ± 4.9%
  cytotoxicity at 4000 µM: 65 ± 5.9%
  cytotoxicity at 5000 µM: 75.2 ± 2.9%
  cytotoxicity at 10000 µM: 81.9 ± 5.2%
DU145
  cytotoxicity at 1000 µM: 43 ± 3.8%
  cytotoxicity at 2500 µM: 67.4 ± 5.2%
  cytotoxicity at 4000 µM: 69.9 ± 7.9%
  cytotoxicity at 5000 µM: 73.5 ± 3%
  cytotoxicity at 10000 µM: 79.3 ± 1.9%
293
  IC50: 2.9 ± 0.5 mM
